Test results: patent publication US20250268894A1, “MACROCYCLE COMPOUNDS FOR THE TREATMENT OF CANCER” (Hoffmann-La Roche Inc., priority 2022, published 2025)

Assays:
[1] = tested on: SW620 cells (KRAS G12V); experiment: Cell viability assay (Cell Counting Kit-8), KRAS G12V; type: cell-based; details: Homo sapiens, SW-620, SW620, 72 hrs
Method: (§1) The purpose of this cellular assay was to determine the effects of test compounds on the proliferation of human cancer cell lines NCI-H358 (ATCC-CRL5807) cells, AGS (ATCC-CRL-1739) cells, SW620 (ATCC-CCL-227) over a 3-day treatment period by quantifying the amount of NADPH present at endpoint using Cell Counting Kit-8.
(§2) Cells were seeded at 5,000 cells/well (NCI-H358), 2,000 cells/well (AGS)2,000 cells/well (SW620) in 96-well assay plates (Corning-3699) and incubated overnight. On the day of the assay, diluted compounds were then added in a final concentration of 0.5% DMSO. After 72 hrs incubation, a tenth of the volume of cell counting kit 8 (Dnjindo-CK04) was added into each well. Read the signal (OD450 minus OD650) using EnVision after 2 hrs incubation. IC50 was determined by fitting a 4-parameter sigmoidal concentration response model.

[2] = tested on: phosphorylation of ERK, KRAS G12V in SW620 cells; experiment: pERK inhibition assay, KRAS G12V in SW620; type: cell-based, human
Method: (§3) This assay is to measure the ability of test compounds in inhibiting the phosphorylation of ERK, the downstream signaling of KRAS G12C in NCI-H358 cells, KRAS G12D in AGS cells, and KRAS G12V in SW620. NCI-H358 (ATCC-CRL5807) cells, AGS (ATCC-CRL-1739) cells, SW620 (ATCC-CCL-227) cells were all grown and maintained using RPMI-1640 medium (Thermo Fisher Scientific) with 10% fetal bovine serum and 1% penicillin/streptomycin. On the day prior to compound addition, cells were plated in tissue culture-treated 96 well plates (Corning-3699) at a density of 30,000 cell/well, 20,000 cell/well, 30,000 cell/well for NCI-H358, AGS and SW620 respectively, and allowed for attachment overnight. Diluted compounds were then added in a final concentration of 0.5% DMSO. After 4 hours of incubation, the medium was removed, 100 μL of 4% formaldehyde was added, and the assay plates were incubated at room temperature for 20 minutes. The plates were then washed once with phosphate buffered saline (PBS), and permeabilized with 100 μL of chilled methanol for 10 minutes. Non-specific antibody binding to the plates was blocked using 50 μL 1X BSA blocking buffer (Thermo-37520, 10-fold dilution by Phosphate-Buffered Saline Tween (PBST) for at least 1 hour at room temperature.
(§4) The amount of phosphor-ERK was determined using an antibody specific for phosphorylated form of ERK. Primary antibody (PERK, CST-4370, Cell Signaling Technology) was diluted 1:300 in blocking buffer, with 50 μL aliquoted to each well, and incubated overnight at 4° C. Cells was washed five times for 5 minutes with PBST. Secondary antibody (HRP-linked anti-rabbit IgG, CST-7074, Cell Signaling Technology) was diluted 1:1000 in blocking buffer, and 50 μL was added to each well and incubated 1-2 hrs at room temperature. Cells was washed […] for 5 minutes with PBST, 100 μL TMB ELISA substrate (abcam-ab171523) were added and gently shake for 20 minutes. 50 μL stop solution (abcam-ab171529) were added, and then read the signal (OD450) by EnVision.
(§5) IC50 was determined by fitting a 4-parameter sigmoidal concentration response model.

[3] = tested on: phosphorylation of ERK, KRAS G12C in NCI-H358 cells; experiment: pERK inhibition assay, KRAS G12C in NCI-H358 cells; type: cell-based, human; details: NCI-H358, 4 hours
Method: as §3, §4, §5

[4] = tested on: NCI-H358 cells (KRAS G12C); experiment: Cell viability assay (Cell Counting Kit-8), KRAS G12C; type: cell-based; details: Homo sapiens, NCI-H358, 72 hrs
Method: as §1, §2

[5] = tested on: AGS cells (KRAS G12D); experiment: Cell viability assay (Cell Counting Kit-8), KRAS G12D; type: cell-based; details: Homo sapiens, 72 hrs
Method: as §1, §2

[6] = tested on: phosphorylation of ERK, KRAS G12D in AGS cells; experiment: pERK inhibition assay, KRAS G12D in AGS cells; type: cell-based, human; details: 4 hours
Method: as §3, §4, §5

[7] = target: KRAS G12D-BRAF complex (Homo sapiens (Human), UniProt P01116+P62937, G12D); experiment: KRAS-BRAF with CYPA (500 nM) interaction assay (TR-FRET), G12D; type: biochemical
Sequence of KRAS G12D-BRAF complex (P01116-2 other isoform, or with tags, fused parts or gaps G12D): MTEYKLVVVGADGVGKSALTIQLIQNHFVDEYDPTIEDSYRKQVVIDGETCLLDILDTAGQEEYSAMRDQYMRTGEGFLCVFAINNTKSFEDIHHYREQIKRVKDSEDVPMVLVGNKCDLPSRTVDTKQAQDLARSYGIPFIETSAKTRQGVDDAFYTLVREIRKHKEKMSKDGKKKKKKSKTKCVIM
Sequence of KRAS G12D-BRAF complex (P62937 whole entry): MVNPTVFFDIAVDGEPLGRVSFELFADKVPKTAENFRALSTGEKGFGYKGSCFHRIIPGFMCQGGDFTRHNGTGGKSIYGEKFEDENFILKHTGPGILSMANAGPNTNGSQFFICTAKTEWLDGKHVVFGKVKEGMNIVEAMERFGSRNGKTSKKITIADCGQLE
Method: (§6) Kras-BRAF with CYPA (500 nM) Interaction Assay In this example, TR-FRET was also used to measure the compound or compound-CYPA dependent disruption of the KRAS G12C-BRAF complex. This protocol was also used to measure disruption of KRAS G12D or KRAS G12V binding to BRAF by a compound of the invention, respectively. […] Compound was present in plate wells as a 16-point 3-fold dilution series starting at a final concentration of 10 μM and incubated for 3 hours. […] TR-FRET signal was read on a […] microplate reader (Ex320 nm, Em 665/615 nm). Compounds that facilitate disruption of the KRAS-BRAF complex were identified as those eliciting a decrease in the TR-FRET ratio relative to DMSO control wells.

[8] = target: KRAS G12V-BRAF complex (Homo sapiens (Human), UniProt P01116+P62937, G12V); experiment: KRAS-BRAF with CYPA (500 nM) interaction assay (TR-FRET), G12V; type: biochemical
Sequence of KRAS G12V-BRAF complex (P01116-2 other isoform, or with tags, fused parts or gaps G12V): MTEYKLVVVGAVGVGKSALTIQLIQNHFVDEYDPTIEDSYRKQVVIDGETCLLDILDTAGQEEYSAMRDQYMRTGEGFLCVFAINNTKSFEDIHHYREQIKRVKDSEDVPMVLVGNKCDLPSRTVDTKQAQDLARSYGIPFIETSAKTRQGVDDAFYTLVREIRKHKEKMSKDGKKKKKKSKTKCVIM
Sequence of KRAS G12V-BRAF complex (P62937 whole entry): as the sequence (P62937 whole entry) above
Method: as §6

[9] = target: KRAS G12C-BRAF complex (Homo sapiens (Human), UniProt P01116+P62937, G12C); experiment: KRAS-BRAF with CYPA (500 nM) interaction assay (TR-FRET), G12C; type: biochemical
Sequence of KRAS G12C-BRAF complex (P01116-2 other isoform, or with tags, fused parts or gaps G12C): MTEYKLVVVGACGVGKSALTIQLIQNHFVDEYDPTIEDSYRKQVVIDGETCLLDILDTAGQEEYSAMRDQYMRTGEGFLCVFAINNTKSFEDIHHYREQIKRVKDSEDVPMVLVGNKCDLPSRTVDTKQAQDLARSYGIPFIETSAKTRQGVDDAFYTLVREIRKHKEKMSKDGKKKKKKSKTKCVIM
Sequence of KRAS G12C-BRAF complex (P62937 whole entry): as the sequence (P62937 whole entry) above
Method: as §6

[10] = Homo sapiens, SW-620, SW620, 4 hours

Structure (SMILES)	IC50 [1] [nM]	IC50 [2, 10] [nM]	IC50 ([3]; Homo sapiens) [nM]	IC50 [4] [nM]	IC50 [5] [nM]	IC50 ([6]; Homo sapiens) [nM]	IC50 ([2]; SW620, 4 hours) [nM]	IC50 [3] [nM]	IC50 [6] [nM]	IC50 [7] [nM]	IC50 [8] [nM]	IC50 [9] [nM]
CO[C@@H](C)c1ncc(N2CCN(C)CC2)cc1-c1c2c3c(F)c(ccc3n1CC(F)(F)F)-c1csc(n1)C[C@H](NC(=O)[C@H](C(C)C)N(C)C(=O)N1CC(N(C)C)C1)C(=O)N1CCC[C@H](N1)C(=O)OCC(C)(C)C2 (atropisomer, axis not shown; (M)) [Example 2, 3-(dimethylamino)-N-[(1S)-1-[[(7S,13S)-25-fluoro-(20M)-20-[2-[(1S)-1-methoxyethyl]-5-(4-methylpiperazin-1-yl)-3-pyridyl]-17,17-dimethyl-8,14-dioxo-21-(2,2,2-trifluoroethyl)-15-oxa-4-thia-9,21,27,28-tetrazapentacyclo[17.5.2.1^2,5.1^9,13.0^22,26]octacosa-1(25),2,5 (28),19,22 (26),23-hexaen-7-yl]carbamoyl]-2-methyl-propyl]-N-methyl-azetidine-1-carboxamide]	3	4	1	4	16	5						
CO[C@@H](C)c1ncc(N2CCN(C)CC2)cc1-c1c2c3cc(ccc3n1CC(F)(F)F)-c1csc(n1)C[C@H](NC(=O)[C@H](C(C)C)N(C)C(=O)N1CCOCC1)C(=O)N1CCC[C@H](N1)C(=O)OCC(C)(C)C2 (atropisomer, axis not shown; (M)) [Example 3, N-[(1S)-1-[[(7S,13S)-24-fluoro-(20M)-20-[2-[(1S)-1-methoxyethyl]-5-(4-methylpiperazin-1-yl)-3-pyridyl]-17,17-dimethyl-8,14-dioxo-21-(2,2,2-trifluoroethyl)-15-oxa-4-thia-9,21,27,28-tetrazapentacyclo[17.5.2.1^2,5.1^9,13.0^22,26]octacosa-1 (25),2,5 (28),19,22 (26),23-hexaen-7-yl]carbamoyl]-2-methyl-propyl]-N-methyl-morpholine-4-carboxamide]	1	1	1	1	15	1						
COC(C)c1ncc(N2CCN(CC(F)(F)F)CC2)cc1-c1c2c3cc(c(F)cc3n1CC(F)(F)F)-c1csc(n1)CC(NC(=O)C(C(C)C)N(C)C(=O)N1CCN(C)CC1)C(=O)N1CCCC(N1)C(=O)OCC(C)(C)C2 [Example 18, N-[(1S)-1-[[(7S,13S)-24-fluoro-(20M)-20-[2-[(1S)-1-methoxyethyl]-5-[4-(2,2,2-trifluoroethyl)piperazin-1-yl]-3-pyridyl]-17,17-dimethyl-8,14-dioxo-21-(2,2,2-trifluoroethyl)-15-oxa-4-thia-9,21,27,28-tetrazapentacyclo[17.5.2.1^2,5.1^9,13.0^22,26]octacosa-1 (25),2,5 (28),19,22 (26),23-hexaen-7-yl]carbamoyl]-2-methyl-propyl]-N,4-dimethyl-piperazine-1-carboxamide]							7	23	12			
CCn1c(-c2cc(N3CCOCC3)cnc2[C@H](C)OC)c2c3cc(c(F)cc31)-c1csc(n1)C[C@H](NC(=O)[C@H](C(C)C)N1CCN(C)C1=O)C(=O)N1CCC[C@H](N1)C(=O)OCC(C)(C)C2 (atropisomer, axis not shown; (M)) [Example 8, (2S)-N-[(7S,13S)-21-ethyl-24-fluoro-(20M)-20-[2-[(1S)-1-methoxyethyl]-5-morpholino-3-pyridyl]-17,17-dimethyl-8,14-dioxo-15-oxa-4-thia-9,21,27,28-tetrazapentacyclo[17.5.2.1^2,5.1^9,13.0^22,26]octacosa-1 (25),2,5 (28),19,22 (26),23-hexaen-7-yl]-3-methyl-2-(3-methyl-2-oxo-imidazolidin-1-yl) butanamide]	7	5	24	12	57	24						
COC(C)c1ncc(N2CCN(CC(F)(F)F)CC2)cc1-c1c2c3cc(c(F)cc3n1CC(F)(F)F)-c1csc(n1)CC(NC(=O)C(C(C)C)N(C)C(=O)N1CCN(CC(F)(F)F)CC1)C(=O)N1CCCC(N1)C(=O)OCC(C)(C)C2 [Example 19, N-[(1S)-1-[[(7S,13S)-24-fluoro-(20M)-20-[2-[(1S)-1-methoxyethyl]-5-[4-(2,2,2-trifluoroethyl)piperazin-1-yl]-3-pyridyl]-17,17-dimethyl-8,14-dioxo-21-(2,2,2-trifluoroethyl)-15-oxa-4-thia-9,21,27,28-tetrazapentacyclo[17.5.2.1^2,5.1^9,13.0^22,26]octacosa-1 (25),2,5 (28),19,22 (26),23-hexaen-7-yl]carbamoyl]-2-methyl-propyl]-N-methyl-4-(2,2,2-trifluoroethyl) piperazine-1-carboxamide]							16	66	54			
CCn1c(-c2cc(N3CCOCC3)cnc2[C@H](C)OC)c2c3cc(c(F)cc31)-c1csc(n1)C[C@H](NC(=O)[C@H](C(C)C)N(C)C(=O)N1CC(F)(F)C1)C(=O)N1CCC[C@H](N1)C(=O)OCC(C)(C)C2 (atropisomer, axis not shown; (M)) [Example 7, N-[(1S)-1-[[(7S,13S)-21-ethyl-24-fluoro-(20M)-20-[2-[(1S)-1-methoxyethyl]-5-morpholino-3-pyridyl]-17,17-dimethyl-8,14-dioxo-15-oxa-4-thia-9,21,27,28-tetrazapentacyclo[17.5.2.1^2,5.1^9,13.0^22,26]octacosa-1 (25),2,5 (28),19,22 (26),23-hexaen-7-yl]carbamoyl]-2-methyl-propyl]-3,3-difluoro-N-methyl-azetidine-1-carboxamide]										472	611	95
CO[C@@H](C)c1ncc(N2CCOCC2)cc1-c1c2c3cc(c(F)cc3n1CC(F)(F)F)-c1csc(n1)C[C@H](NC(=O)[C@H](C(C)C)N(C)C(=O)N1CC(N(C)C)C1)C(=O)N1CCC[C@H](N1)C(=O)OCC(C)(C)C2 (atropisomer, axis not shown; (M)) [Example 4, 3-(dimethylamino)-N-[(1S)-1-[[(7S,13S)-24-fluoro-(20M)-20-[2-[(1S)-1-methoxyethyl]-5-morpholino-3-pyridyl]-17,17-dimethyl-8,14-dioxo-21-(2,2,2-trifluoroethyl)-15-oxa-4-thia-9,21,27,28-tetrazapentacyclo[17.5.2.1^2,5.1^9,13.0^22,26]octacosa-1 (25),2,5 (28),19,22 (26),23-hexaen-7-yl]carbamoyl]-2-methyl-propyl]-N-methyl-azetidine-1-carboxamide]	1	1	1	3	17	3						
